Key:
[1] = system: NO production in stimulated human monocytes; test: NO production in stimulated human monocytes in vitro (FIG. 3); assay type: cell-based
[2] = system: production of IL-8 in ex-vivo stimulated peripheral human monocytes; test: IL-8 production in ex-vivo stimulated peripheral monocytes of former smokers under additional therapy; assay type: cell-based; details: long-term additional therapy with 1,8-cineol plus ICS-based therapy
Method: (§1) From these patients, monocytes were obtained during ongoing therapy with ICS and incubated in vitro with a topical glucocorticoid in a dose-dependent manner.

[3] = system: patients with persistent bronchial asthma (GINA III); test: Clinical add-on therapy with oral 1,8-cineol, persistent bronchial asthma GINA III, 12 patients; assay type: in vivo, human
Source text: Even after a one-week therapy at the dose mentioned above, in 9 of the 12 subjects a slight to moderate improvement of lung function was achieved. After continuing therapy for a further twelve weeks, the persistent bronchial asthma had stabilized to such an extent that in 9 of the 12 patients the inhalative glucocorticoid required could be reduced by up to 30%.

[4] = system: superoxide production (O2^− production) of normal human monocytes; test: PMA-stimulated superoxide production (INT-formazan) of normal human monocytes in vitro; assay type: cell-based; details: for INT-Formazan: PMA, 20 hours; for O2^− production: FIG. 3
[5] = system: FCS-stimulated production of superoxides (O2^−) in normal human monocytes; test: FCS-stimulated superoxide production of normal human monocytes in vitro (INT-formazan); assay type: cell-based; details: for INT-Formazan / O2^−: FCS 10%; for INT-Formazan / Comparison to control (%): Table 4 series
Method: As already described, monocytes were isolated from 50 ml of venous blood which was repeatedly donated voluntarily for the experiments by healthy non-smoking subjects (n=4). […] To this end, the active compounds were incubated together with freshly isolated monocytes (10^5/ml) and the FCS stimulus (10%, from Sigma) for 20 hours in a cell culture medium (RPMI-1640, from Sigma). […] The determination of the cytosolic superoxide production is based on the reduction of the dye p-iodonitrotetrazolium violet (INTV), which reacts specifically with superoxide ions, to iodonitrotetrazolium formazan (formazan). INTV is taken up by the cells into the cytosol. Intracellularly, the nitrogen cycle of the INTV is reduced by free superoxide radicals, giving rise to a water-soluble intermediate and the water-insoluble formazan, which have their absorption maxima at 505 and 490 nm, respectively. […] At the end of an experiment, the cell lysate is (after treatment with hydrochloric acid) measured at 492 nm in a photometer. Here, the absorption of light is proportional to the amount of intracellularly accumulated INT-formazan which can then be determined using a formazan calibration curve. The INT-formazan accumulation for its part is determined as a measure for the intracellular production of superoxide.

[6] = system: IL-1beta production in LPS-stimulated human monocytes; test: LPS-stimulated production of IL-1beta in human monocytes in vitro (ELISA); assay type: cell-based
Source text: 1,8-Cineol intensifies in particular the action of subtherapeutic concentrations of beclometasone which are relevant for the peripheral respiratory tract.

[7] = system: hydrogen peroxide (H2O2) production; test: Hydrogen peroxide production; details: low concentrations relevant for the respiratory air and therapeutic range
[8] = system: production of TNF-α in ex-vivo stimulated peripheral human monocytes; test: TNF-α production in ex-vivo stimulated peripheral monocytes of former smokers under additional therapy; assay type: cell-based; details: long-term additional therapy with 1,8-cineol plus ICS-based therapy
Method: as §1

[9] = system: superoxide dismutases (SOD); test: Superoxide dismutase activity
[10] = system: patients with persistent bronchial asthma (GINA II); test: Clinical add-on therapy with oral 1,8-cineol, persistent bronchial asthma GINA II, 10 patients; assay type: in vivo, human
Method: 10 patients 56 to 72 years of age with persistent bronchial asthma (GINA II) treated with a combination therapy of inhalative glucocorticoid (beclometasone, 2×200 μg/day by inhalation) and inhalative long-acting beta-2-sympathomimetics (LABA, salmeterol) and also oral theophyllin were given 1,8-cineol (Soledum® capsules) 4×200 mg/day orally for one week. Even after a one-week therapy at the dose mentioned above, in 8 of the 10 subjects a slight to moderate improvement of lung function was achieved. After continuing therapy for a further twelve weeks, the persistent bronchial asthma had stabilized to such an extent that in 7 of the 10 patients the inhalative glucocorticoid required could be reduced by up to 60% and in 2 of the 10 patients the inhalative glucocorticoids could be discontinued altogether at times. […] In 5 of the patients treated, the betamimetics required, too, could be reduced by up to 40%.

[11] = therapeutic range of 1,8-cineol
[12] = 4×200 mg/day orally, after one week, add-on to beclometasone, salmeterol, theophyllin
[13] = 1,8-cineol 6 × 10^−6 mol/l (0.9 μg/ml), Table 6 series

CC12CCC(CC1)C(C)(C)O2 [1,8-cineol, 1,3,3-trimethyl-2-oxabicyclo-[2.2.2]-octane]
production of NO ([1]; subtherapeutic concentrations (0.15 μg/ml=10^−6 mol/l)): inhibit the production of NO
production of NO [1, 11]: stimulating effects on the production of NO
production of IL-8 compared to normal monocytes of nonsmokers [2]: increased production of IL-8
tolerability ([3]; 4×200 mg/day orally): tolerated well, without any side-effects
subjects with a slight to moderate improvement of lung function [3, 12]: 9 of the 12
patients in whom the inhalative glucocorticoid required could be reduced ([3]; after a further twelve weeks): 9 of the 12
reduction of the betamimetics required ([3]; after a further twelve weeks): up to 25%
reduction of the inhalative glucocorticoid required ([3]; after a further twelve weeks): up to 30%
patients in whom the betamimetics required could be reduced ([3]; of 12 patients treated): 4
Comparison with control (%) ([4]; 0.0015 μg/ml (10^−8 mol/l)): +27.6 ± 4%
INT-Formazan ([4]; 0.0015 μg/ml (10^−8 mol/l)): 5.364 ± 229 nmol/10^5
Comparison with control (%) ([4]; 0.015 μg/ml (10^−7 mol/l)): +24.5 ± 6%
INT-Formazan ([4]; 0.015 μg/ml (10^−7 mol/l)): 5235 ± 341 nmol/10^5
Comparison with control (%) ([4]; 0.15 μg/ml (10^−6 mol/l)): +26.7 ± 7%
INT-Formazan ([4]; 0.15 μg/ml (10^−6 mol/l)): 5327 ± 360 nmol/10^5
Comparison with control (%) ([4]; 0.3 μg/ml (2 × 10^−6 mol/l)): +31.8 ± 6%
INT-Formazan ([4]; 0.3 μg/ml (2 × 10^−6 mol/l)): 5540 ± 359 nmol/10^5
Comparison with control (%) ([4]; 0.6 μg/ml (4 × 10^−6 mol/l)): +43.8 ± 9%
INT-Formazan ([4]; 0.6 μg/ml (4 × 10^−6 mol/l)): 6045 ± 534 nmol/10^5
Comparison with control (%) ([4]; 0.9 μg/ml (6 × 10^−6 mol/l)): +45.3 ± 7%
INT-Formazan ([4]; 0.9 μg/ml (6 × 10^−6 mol/l)): 6107 ± 437 nmol/10^5
Comparison with control (%) ([4]; 1.2 μg/ml (8 × 10^−6 mol/l)): −2.5 ± 6%
INT-Formazan ([4]; 1.2 μg/ml (8 × 10^−6 mol/l)): 4099 ± 234 nmol/10^5
Comparison with control (%) ([4]; 1.5 μg/ml (10^−5 mol/l)): −42 ± 16%
INT-Formazan ([4]; 1.5 μg/ml (10^−5 mol/l)): 2438 ± 389 nmol/10^5
Comparison with control (%) ([4]; 3 μg/ml (2 × 10^−5 mol/l)): −84.9 ± 22%
INT-Formazan ([4]; 3 μg/ml (2 × 10^−5 mol/l)): 634 ± 139 nmol/10^5
O2^− production ([4]; low concentrations of 1,8-cineol): slightly induce O2^− production
O2^− production [4, 11]: inhibited strongly
INT-Formazan ([5]; 0.000015 μg/ml (10^−10 mol/l)): 21360 ± 1766 nmol/10^5
Comparison to control (%) ([5]; 0.000015 μg/ml (10^−10 mol/l)): −0.7 ± 8%
INT-Formazan ([5]; 0.00015 μg/ml (10^−9 mol/l)): 21329 ± 1920 nmol/10^5
Comparison to control (%) ([5]; 0.00015 μg/ml (10^−9 mol/l)): −0.8 ± 9%
INT-Formazan ([5]; 0.0015 μg/ml (10^−8 mol/l)): 21946 ± 1858 nmol/10^5
Comparison to control (%) ([5]; 0.0015 μg/ml (10^−8 mol/l)): 2 ± 8%
INT-Formazan ([5]; 0.015 μg/ml (10^−7 mol/l)): 21899 ± 1879 nmol/10^5
Comparison to control (%) ([5]; 0.015 μg/ml (10^−7 mol/l)): 1.8 ± 8%
INT-Formazan ([5]; 0.15 μg/ml (10^−6 mol/l)): 22286 ± 2036 nmol/10^5
Comparison to control (%) ([5]; 0.15 μg/ml (10^−6 mol/l)): 3.6 ± 9%
INT-Formazan ([5]; 0.3 μg/ml (2 × 10^−6 mol/l)): 21499 ± 1959 nmol/10^5
Comparison to control (%) ([5]; 0.3 μg/ml (2 × 10^−6 mol/l)): 0.04 ± 9%
INT-Formazan ([5]; 0.6 μg/ml (4 × 10^−6 mol/l)): 17240 ± 1637 nmol/10^5
Comparison to control (%) ([5]; 0.6 μg/ml (4 × 10^−6 mol/l)): −19.8 ± 9%
INT-Formazan ([5]; 0.9 μg/ml (6 × 10^−6 mol/l)): 12341 ± 1061 nmol/10^5
Comparison to control (%) ([5]; 0.9 μg/ml (6 × 10^−6 mol/l)): −42.6±8%
Comparison to control (%) ([5]; 0.9 μg/ml (6 × 10^−6 mol/l), listed as 1,8-Cineol): −42.6 ± 8%
INT-Formazan ([5]; 1.2 μg/ml (8 × 10^−6 mol/l)): 10086 ± 701 nmol/10^5
Comparison to control (%) ([5]; 1.2 μg/ml (8 × 10^−6 mol/l)): −53.1 ± 7%
INT-Formazan ([5]; 1.5 μg/ml (10^−5 mol/l)): 10202 ± 915 nmol/10^5
Comparison to control (%) ([5]; 1.5 μg/ml (10^−5 mol/l)): −52.6 ± 9%
O2^− ([5]; 1,8-cineol 4 × 10^−6 mol/l (0.6 μg/ml), Table 5 series): 16323 ± 1069 nmol/mL
O2^− [5, 13]: 9347 ± 494 nmol/mL
Percent of control [5, 13]: −50.2±5%
lowest antioxidatively active concentration ([5]; FCS-stimulated O2^− production): 6e-06 mol/L
inhibition of the production of O2^− radicals ([5]; therapeutically relevant concentrations of 1,8-cineol, summary): about 50%
production of IL-1beta, change ([6]; 1,8-cineol on its own, 10^−6 mol/l, FIG. 1): −32%
Effect vs. control Inhibition (%) ([6]; cineol 10^−6 mol/l): 32.4±17%
Effect vs. cineol 10^−6 mol/l Inhibition (%) ([6]; cineol 10^−6 mol/l (the reference itself)): 0 ± 17%
IL-1beta ([6]; cineol 10^−6 mol/l, LPS, 20 hours): 3548 ± 600 Pg/5 × 10^4 cells
Effect vs. control Inhibition (%) ([6]; cineol 10^−6 mol/l, listed as cineol): 32.4 ± 17%
LPS-stimulated production of IL1-beta compared to the LPS control ([6]; therapeutically relevant concentrations of 1,8-cineol, FIG. 2, p<0.01): inhibited by therapeutically relevant concentrations of 1,8-cineol in a dose-dependent manner and significantly
production of H2O2 [7]: inhibited the production of O2^− radicals and H2O2
production of TNF-α compared to normal monocytes of nonsmokers [8]: inhibition of the production of TNF-α
superoxide dismutase activity [9]: partially inhibited
tolerability ([10]; 4×200 mg/day orally): tolerated well, without any side-effects
patients in whom the inhalative glucocorticoid required could be reduced ([10]; 4×200 mg/day orally, after a further twelve weeks): 7 of the 10
subjects with a slight to moderate improvement of lung function [10, 12]: 8 of the 10
patients in whom the inhalative glucocorticoids could be discontinued altogether at times ([10]; after a further twelve weeks): 2 of the 10
reduction of the betamimetics required ([10]; after a further twelve weeks): up to 40%
reduction of the inhalative glucocorticoid (ICS dose) required ([10]; long-term therapy with oral 1,8-cineol, one plus twelve weeks): up to 60%
patients in whom the betamimetics required could be reduced ([10]; of 10 patients treated): 5
